This is an account of results in US8076318B2, “Caged ligands and uses thereof” (priority 2002, dated 2011).

The test system of data set [1] is EcR/RXR. Kind of data set: Immunodetection of intracellularly expressed luciferase, spot illumination. Conditions: 293T cells; for Luciferase expression by immunofluorescence, without illumination: 100 μM, 16 hr incubation, no light; for Luciferase expression by immunofluorescence after spot illumination: 4 washed out, spot illuminated (~0.25 mm^2) 10 sec, 6 hr incubation. The class given is cell-based. Here is the method: Immunodetection of Intracellularly Expressed Luciferase. 293T cells were transferred to the individual wells of a 24-well culture plate (Becton Dickinson Labware, lot #353047) and transfected as described above. The cells were then incubated with either 100 μM β-ecdysone or 100 μM caged β-ecdysone for 16 hr. The medium was removed and the cells washed once with PBS before addition of an ecdysteroid free medium. The surface of the pre-scored wells was spot illuminated (˜0.25 mm^2) for 10 sec on a light microscope using a 100 W Hg-Arc lamp through an Olympus UAPO 20×/0.40 objective. The cells were then incubated for 6 hr, fixed with 4% formaldehyde in PBS for 60 min, washed with PBS 3×5 min, permeabilized with 0.1% TritonX100 for 10 min, washed with PBS 3×5 min, and blocked with 1% normal donkey serum (Jackson ImmunoResearch catalog #017-000-121) in PBS for 45 min. The cells were subsequently exposed to 300 μL of anti-luciferase pAb (polyclonal goat antibody, Promega, lot #149040) at a concentration of 40 μg/mL in 1% donkey serum in PBS. After incubation for 2 hr at room temperature in a humidified chamber, the cells were washed with PBS 3×15 min and exposed to 300 μL of an Alexa Fluor 568-labeled rabbit anti-goat IgG (20 μg/mL in 1% donkey serum/PBS for 1 hr, Molecular Probes, catalog #A-11079). Unbound antibody was removed by washing with PBS 3×15 min and the cells treated with 300 μL of mounting medium (N-propyl gallate at 6 mg/mL in 1:1 glycerol:PBS). Images were taken using an Olympus IX-70 microscope equipped with a CCD camera.
Light-Driven Spatially-Discrete Luciferase Expression in Transiently Transfected 293T Cells. We examined whether the combination of 4 and spot illumination induces gene activation in a spatially discrete fashion. Transiently transfected 293T cells were incubated with 1 for 16 hr, fixed, permeabilized, exposed to a luciferase antibody, and stained with an Alexa-labeled secondary antibody. […] 293T cells were also exposed to 4, the media replaced with fresh media to remove extracellular 4, and spot illuminated (˜0.25 mm^2) for 10 sec. The cells were then returned to the incubator for 6 hr and subsequently analyzed for luciferase expression.
However, if photo-uncaged intracellular β-ecdysone does migrate to the extracellular environment then it is possible that sites distant from the region of illumination could undergo unintentional gene activation as well. On the other hand, given the small intracellular volume of a typical cell (˜1 pL) it is likely that any uncaged β-ecdysone that escapes from its intracellular locale will be too dilute to effect changes in gene expression profiles at remote sites. We explicitly addressed this possibility by examining spatially-discrete gene activation using spot illumination of cultured 293T cells. Luciferase expression in fixed and permeabilized cells was visually identified via the coupled use of a luciferase antibody and a secondary Alexa-labeled antibody. […] Luciferase expression is not observed in the absence of β-ecdysone (data not shown) nor in the presence of caged β-ecdysone without light (see below). […] Regions outside of the zone of illumination fail to display luciferase expression.

Data set [2] deals with EcR/RXR. Kind of data set: Time-dependent luciferase assays after photolysis, with or without washing out extracellular ligand. The class given is cell-based. Here is the method:
Time-dependent luciferase assays. 293T cells were split in a 24-well culture plate (Becton Dickinson Labware, lot #353047) and were transfected by a calcium phosphate method. The cells in 500 μL culture medium were incubated with either 100 μM caged β-ecdysone, 100 μM β-ecdysone, or absent an ecdysteroid ligand. After the cells were incubated with caged β-ecdysone for 16 hours, the medium was removed and washed with PBS once. A fresh medium free of ligand was then immediately added just prior to UV light exposure for 1 min. In the “Caged+hv” experiment, the caged β-ecdysone ligand remained in the medium and these cells were likewise illuminated for 1 min. Cells that were not exposed to ecdysteroid ligand were treated in an otherwise analogous fashion. The cells were then returned to the incubator for various time intervals. Incubation was terminated by treating cells with an extraction buffer (1% Triton X-100 and 1 mM DTT in GME). Luciferase activity was preformed as described above.
Cells were pre-incubated with the caged β-ecdysone 4 for 16 hr, illuminated for 1 min, and then lysed at various time points following photolysis. […] The 293T cell line was pre-incubated with 4 for 16 hr, the media subsequently removed, and the cells washed with PBS. Ecdysone-free media was then added, the cell culture incubated for various time points, and tested for luciferase activity. The gene expression kinetic profile is nearly identical for the two sets of experiments [(4+photolysis) versus (4+washing+photolysis)] during the first 5 hr, which is consistent with the notion that caged β-ecdysone 4 is intracellularly liberated (FIG. 3).
What is the time-dependence of β-ecdysone-induced luciferase expression? We addressed this question by pre-incubating 293T cells with the caged derivative 4 for 16 hr followed by illumination for 1 min. Cells were subsequently incubated for various time intervals, lysed, and luciferase activity assessed. […]

For data set [3], the system named is EcR/RXR. Kind of data set: Luciferase expression in transiently transfected 293T cells with and without 1 min illumination. The class given is cell-based. Conditions: for Fold luciferase induction / Activity as inducing agent in the luciferase-based gene expression system (in words): 293T cells; for Fold luciferase induction: culture media/2% MeOH; for Activity as inducing agent in the luciferase-based gene expression system (in words): without light. The text has this:
Plasmid Description. The luciferase reporter (E/GRE)6TK81LUC consists of multimeric E/GRE binding sites from (E/GRE)4ΔMTVLuc linked to the minimal TK promoter in the pA3LUC reporter plasmid. The modified MMTV promoter from MMTVp206 that incorporates the 5′UTR of v-Ha-ras was inserted into a vector containing a modified ecdysone receptor VgEcR (a gift from R. Evans) to form MMTV-VgEcR.
Cell Culture, DNA Transfection, and Luciferase Assays. Cell culture, DNA transfection, and luciferase assays were performed as previously described (Wantanable et al., 1966). Briefly, 293-derived BOSC cells (293T) were seeded into individual wells of a 24 well plate and maintained in Dulbecco's modified Eagles medium with 10% fetal calf serum and 1% penicillin/streptomycin. Cells were transiently transfected with pVgEcR/RXRα and (E/GRE)6TKLUC via a standard calcium phosphate method. The media was changed after 14 hr and the cells treated with 10 μL of 5 mM β-ecdysone 1 (FIG. 1) in methanol (to furnish a 100 μM final concentration of ecdysteroid). Cells were either left un-illuminated or illuminated for 1 min using an Oriel 200 W Hg arc lamp (model 6283) with a 348 nm filter (Oriel, lot number 51260, 50% internal transmittance at 348 nm and cutoff at <325 nm) to remove short wavelength light and two IR filters to remove heat. Cells were subsequently lysed as previously described and the luciferase assay performed at room temperature using an Autolumat LB 953 (EG & G, Berthold). Luciferase content was measured by calculating the light emitted during 10 sec of the reaction. The values are expressed in arbitrary light units.
Light-Driven Luciferase Expression in Transiently Transfected 293T Cells. We employed a luciferase-based expression system to examine the biological activity of β-ecdysone and its alkylated analog 4. The 293T cell line was transiently transfected to constitutively express EcR/RXR and inducibly express (upon exposure to β-ecdysone) luciferase. Compound 4 was added to the transfected 293T cells, the cell culture subsequently illuminated, and luciferase activity assessed (Table 1). There is little observable luciferase activity with culture media alone. Exposure of the cells to the bioactive β-ecdysone 1 generates a nearly 90-fold induction of luciferase. By contrast, the caged analog 4 furnishes a slight 6-fold induction of activity over that of culture media alone. […] The latter is consistent with our observation that a 1 min photolysis time window converts approximately 60% of the caged derivative 4 into its bioactive counterpart 1. Finally, illumination in the absence of ligand fails to induce luciferase production.

Data set [4] is described as follows: Photolysis of caged β-ecdysone 4, HPLC analysis and ferrioxalate actinometry. It counts as physicochemical. Conditions: ferrioxalate actinometry, HPLC peak areas. The method, then:
Photolysis of Caged β-ecdysone 4. A 500 μL 100 μM solution of 4 in 2% methanol/98% water was placed in a 24-well culture plate. Photolysis was performed using an Oriel 200 W Hg arc lamp (model 6283) with a 348 nm filter (Oriel, lot number 51260; 50% internal transmittance at 348 nm and cutoff at 325 nm) to remove short wavelength light and an IR filter to remove heat. Aliquots of 10 μL were removed at different time points of photolysis and were analyzed by analytical HPLC (monitored at 242 nm) employing a Vydac C4 (250 mm×3.0 mm) column and using the following solvent system: a linear gradient from 95% A (water):5% B (acetonitrile) to 50% A (water):50% (acetonitrile) over 15 min followed by 50% A (water):50% B (acetonitrile) for 5 min with flow rate at 1 mL/min.
Photoconversion of Caged β-Ecdysone 4 to β-Ecdysone 1. A preliminary assessment of the light-induced conversion of the caged analog 4 to β-ecdysone 1 was performed using a 24-well plate system. […] Aliquots from the wells were subsequently analyzed by HPLC to assess formation of 1 (data not shown). […] The photochemical quantum yield (φ=0.034) was determined using ferrioxalate actinometry (Hatchard & Parker, 1956) according to the equation φ=ΔP/(I×t), where t is the irradiation time, ΔP is the amount of photolabile converted, and was determined using HPLC peak areas.

Data set [5] relates to ecdysone-inducible gene expression system. Conditions: cell-based systems; No et al., 1996; Albanese et al., 2000; cited from earlier work.
Setting [6] is: 293T cells pre-incubated 16 hr with 4, illuminated 1 min.
The mark [7] stands for this setting: 100 μM ecdysteroid, not illuminated, versus culture media alone.

In the case of `COc1cc(COC2CC3(C)C(CC2O)C(=O)C=C2C3CCC3(C)C(C(C)(O)C(O)CCC(C)(C)O)CCC23O)c([N+](=O)[O-])cc1OC` (stereo not drawn) [caged β-ecdysone 4], the “Luciferase expression by immunofluorescence, without illumination” value in the data set on EcR/RXR [1] is given as “failed to exhibit detectable luciferase expression”. Moreover, the “Luciferase expression by immunofluorescence after spot illumination” value is “spatially discrete luciferase expression is observed” in the data set with EcR/RXR [1] and “Only those regions exposed to UV light display luciferase production” in the data set with EcR/RXR [1] (listed as 4). Moreover, the “Luciferase activity relative to maximal activity displayed by β-ecdysone” value in the data set with EcR/RXR [2] (4 + washing (extracellular 4 removed) + 1 min photolysis) was 50%. For the same compound, in the data set on EcR/RXR [2] (setting [6]), the “Post-illumination time at which minimal luciferase activity was first observed” value worked out at 4 h. Also, the “Time of maximal gene (luciferase) expression after photolysis” value with EcR/RXR [2] (setting [6]) is 16 h. The “Luciferase expression relative to that displayed by β-ecdysone 1” value with EcR/RXR [3] (293T cells treated with 4, 1 min photolysis) is “approximately 60%”. For the same compound, the Fold luciferase induction in the data set with EcR/RXR [3] (setting [7]) worked out at 6 fold; in the data set with EcR/RXR [3] (100 μM ecdysteroid, not illuminated, versus culture media alone, listed as caged β-ecdysome 4), 6.5 ± 0.1 fold; in the data set with EcR/RXR [3] (100 μM, 1 min hν (348 nm filter, Hg arc lamp)), 50 ± 4 fold. The “Activity as inducing agent in the luciferase-based gene expression system (in words)” value in the data set with EcR/RXR [3] was “virtually inactive”; in the data set with EcR/RXR [3] (listed as caged ecdysteroid), “nearly inactive”. In addition, the “Photochemical quantum yield φ” value in data set [4] is recorded as 0.034.

Consider `CC(C)CC[C@@H](O)[C@](C)(O)[C@H]1CC[C@@]2(O)C3=CC(=O)[C@]4(O)C[C@@H](O)[C@@H](O)C[C@]4(C)[C@H]3[C@H](O)C[C@]12C` [muristerone 6, muristerone], for which the “Activity relative to β-ecdysone” value in data set [5] is reported as 1,000 times.

On to `CC(C)CC[C@@H](O)[C@](C)(O)[C@H]1CC[C@@]2(O)C3=CC(=O)[C@@H]4C[C@@H](O)[C@@H](O)C[C@]4(C)[C@H]3CC[C@]12C` [ponasterone A 7, ponasterone A], for which the “Activity relative to β-ecdysone” value in data set [5] was 1,000 times.

Regarding `CC(C)(O)CC[C@@H](O)[C@](C)(O)[C@H]1CC[C@@]2(O)C3=CC(=O)[C@@H]4C[C@@H](O)[C@@H](O)C[C@]4(C)[C@H]3CC[C@]12C` [β-ecdysone 1, β-ecdysone, reference compound], the “Luciferase expression by immunofluorescence, without illumination” value was “global luciferase expression throughout the cell culture” in the data set on EcR/RXR [1] and “luciferase expression (20% transfection efficiency) was observed throughout the general cell population” with EcR/RXR [1] (listed as 1). In addition, the Fold luciferase induction in the data set on EcR/RXR [3] (setting [7]) was 88 ± 9 fold; in the data set with EcR/RXR [3] (100 μM ecdysteroid, not illuminated, versus culture media alone, listed as β-ecdysone), roughly 100 fold.
